{"source": "patent US12275685B2", "about": "“Oligo-benzamide analogs and their use in cancer treatment” (Board of Regents, The University of Texas System, priority 2018, dated 2025)", "key": {"[1]": {"tested_on": "estrogen receptor-positive, estrogen receptor-negative and therapy resistant ERMT cells", "assay": "MTT assay of TK41 on breast cancer cells", "assay_type": "cell-based", "method": "FIGS. 2A-2C show the potency of TK41 (IC50 from 50-500 nM) on estrogen receptor-positive (FIG. 2A), estrogen receptor-negative (FIG. 2B) and therapy resistant ERMT (FIG. 2C) cells determined by MTT assay."}, "[2]": {"tested_on": "ERMT (therapy resistant) xenografts", "assay": "ERMT therapy resistant xenografts", "assay_type": "in vivo, nude mice", "conditions": "10 mg/kg/day oral", "method": "FIGS. 8A & 8B show the effect of TK41 (i.e., ERX-41) on therapy resistant cancer cells. ERMT (therapy resistant) xenografts (n=8) were established in nude mice and treated with vehicle (circle markers) or 10 mg/kg/day/oral ERX-41 (square markers)."}, "[3]": {"tested_on": "SUM-159 cells with LIPA KO and reconstitution of LIPA", "assay": "Dose response in SUM-159 LIPA KO cells reconstituted with LIPA constructs", "assay_type": "cell-based", "description": "FIGS. 39A-N: (FIGS. 39A-E) Predicted binding mode of ERX-41 (colored in green) on the human lysosomal acid lipase (LAL, PDB code: 6V7N, LXXLL (SEQ ID NO: 1) domain colored in orange). (FIG. 39F) PDB structure of LAL protein showing relative positions of the catalytic domain (with H274Y MT) and the LXXLL (SEQ ID NO: 1) domain (L242P MT). (FIG. 39G) Evaluation of the effect of ERX-41 and lalistat (known lipase inhibitor) on lipase activity of parental SUM-159 (WT) and SUM-159 cells with LIPA KO. (FIG. 39H) Evaluation of basal lipase activity in parental SUM-159 (WT), SUM-159 cells with LIPA KO (KO), SUM-159 cells with LIPA KO and with reconstitution of either WT LIPA (KO+WT), H274Y MT-LIPA (KO+H274Y), DLXXLL (SEQ ID NO: 2) MT-LIPA (KO+DLXXLL (SEQ ID NO: 2)) or L242P MT-LIPA (KO+L242P). Protein expression of LAL and control vinculin in these cells are shown below (FIG. 391) Cellular lysates from described SUM-159 cells were incubated with biotinylated ERX-11 or biotinylated ERX-41 and then subject to a streptavidin column. Elutants were then evaluated for LIPA pulldown by western blotting. (FIG. 39J) Dose response curve to increasing concentrations of ERX-41 in described SUM-159 cells. (FIGS. 39K-M) Effect of vehicle or 1 μM ERX-41 on induction of UPR genes at the protein level (FIG. 39K) or RNA level (FIGS. 39L-M). […]"}}}
{"compound": "CC(C)COc1cc(C(=O)Nc2ccc(C(=O)N[C@H]3CC[C@H](C)CC3)cc2OCC(C)C)ccc1NC(=O)c1ccc([N+](=O)[O-])c(OCCO)c1", "note": "[TK41]", "values": [{"measurement": "IC50", "setting": "[1]; ER-positive, ER-negative and therapy resistant ERMT cells, MTT assay", "result": "0.05 to 0.5", "unit": "µM"}, {"measurement": "effect on endocrine therapy resistant breast cancer cells", "setting": "[1]; endocrine therapy resistant breast cancer cells", "result": "very effective"}, {"measurement": "activity against ERMT tumors", "setting": "[2]", "result": "has activity against ERMT tumors"}, {"measurement": "sensitivity after reconstitution of H274Y MT-LIPA", "setting": "[3]; KO+H274Y", "result": "restored sensitivity"}, {"measurement": "IC50", "setting": "[3]; SUM159, KO+WT (WT-LIPA reconstituted)", "result": 0.25, "unit": "µM"}]}
